The source made the active and inactive calls. No cut-off for these calls is given here.
Tests used:
Type in all cases: functional, organism-based
Mus musculus [1] = test: Antidepressant activity against dark-induced depression in Albino Swiss mouse assessed as decrease in immobility period at 15 mg/kg, ip once daily for 4 days and 30 mins before test on day 5 by forced swimming test; design: dose 15 mg/kg
Mus musculus [2] = test: Antidepressant activity against dark-induced depression in Albino Swiss mouse assessed as decrease in immobility period at 30 mg/kg, ip once daily for 4 days and 30 mins before test on day 5 by forced swimming test; design: dose 30 mg/kg
Mus musculus [3] = test: Antidepressant activity against dark-induced depression in Albino Swiss mouse assessed as increase in brain serotonin level at 15 mg/kg, ip once daily for 4 days and 30 mins before test on day 5; design: dose 15 mg/kg
Mus musculus [4] = test: Antidepressant activity against dark-induced depression in Albino Swiss mouse assessed as increase in brain serotonin level at 20 mg/kg, ip once daily for 4 days and 30 mins before test on day 5; design: dose 20 mg/kg
Mus musculus [5] = test: Antidepressant activity against dark-induced depression in Albino Swiss mouse assessed as decrease in immobility period at 20 mg/kg, ip once daily for 4 days and 30 mins before test on day 5 by forced swimming test; design: dose 20 mg/kg

Structure (SMILES) | Activity (Mus musculus [1]) | Activity (Mus musculus [2]) | Activity (Mus musculus [3]) | Activity (Mus musculus [4]) | Activity (Mus musculus [5])
Cc1ccc(N2C(=O)[C@@H]3[C@H]([C@H]4C(=O)N(C5CCCCC5)[C@H]4c4ccc(Cl)cc4)C=CC[C@@H]3C2=O)cc1 | inactive | inactive | inactive | – | –
COc1ccc([C@@H]2[C@@H]([C@@H]3C=CC[C@@H]4C(=O)N(c5ccccc5)C(=O)[C@H]34)C(=O)N2c2ccccc2)cc1 | Active | Active | Active | Active | –
O=C1OC(=O)[C@H]2CC=C[C@@H]([C@H]3C(=O)N(c4ccccc4)[C@@H]3c3ccccc3)[C@@H]12 | Active | Active | Active | – | –
O=C1C=CC(=O)[C@H]2CC=C[C@@H]([C@H]3C(=O)N(C4CCCCC4)[C@H]3c3ccccc3)[C@@H]12 | Active | Active | Active | – | –
CNCCC(Oc1ccc(C(F)(F)F)cc1)c1ccccc1 (stereo not given) | – | – | – | Active | Active
